Results published in patent publication US12338266B2 (GENETIC S.P.A., priority 2019, dated 2025).
“Also recorded” adds a separate entry of the source.

Assays:
[1] = test system: mice with OVA-induced allergic asthma; assay: Total and differential leukocyte counts in BAL fluid (Protocol-2); type: in vivo, Balb/c mice
Protocol: Male Balb/c SPF mice (26*2 g, 6 week-old) were purchased from the animal house facilities at the Faculty of Medicine (University of Sāo Paulo, Brazil). They were group-housed in a temperature-controlled room at 22° C. with a 12/12-hour light/dark cycle and allowed free access to food and water. The study is in agreement with the Ethical Principles for Animal Research established by the Brazilian College for Animal Experimentation (COBEA). According to the internal laboratory rules, euthanasia will be performed if severe distress related to the test agents developed during the experiment. Mice were sensitized with two subcutaneous injections of 0.2 ml of OVA/Al(OH)3, with an interval of 7 days (Sham animals received the Al(OH)3 suspension in PBS with no OVA). Chicken egg-white ovalbumin (OVA; grade V, cat. A5503, Sigma Chemical Co., St. Louis, Mo.) was dissolved in sterile phosphate buffered saline (PBS) solution (50 μg/ml) and Al(OH)3 was added (at 8 mg/ml). This mix was used to induce the allergic sensitization of the animals by subcutaneous injection. OVA was dissolved at 1% in sterile PBS solution and this solution was nebulized (as the immunological challenges). Seven days after the second sensitization (i.e., 3rd week), the animals were nebulized twice a week with the 1% OVA solution (Sham and untreated OVA groups were nebulized with PBS) during 20 minutes for the next 4 weeks. Thirty minutes before the challenges (OVA nebulization) and daily during the next 4 weeks, mice were intra-nasally treated (10 μl/animal as 5 μl/nostril) with the respective compounds/vehicle. […] Animals were killed at selected time points by overdose of enflurane and BAL and blood collected.
After Penh evaluation, the mice were anesthetized with inhaled isofluorane (5% v/v in O2) and blood samples were collected from the descending abdominal aorta. The mice were then euthanized by exsanguination and bronchoalveolar lavage (BAL) was performed by exposing and cannulating the trachea with a polyethylene tube (1 mm outer diameter) connected to a syringe. The lungs were washed by flushing 300 μL of heparin-containing PBS solution (20 UI/mL). The retrieved BAL lavage aliquots were obtained and the same procedure was repeated four additional times. The samples were centrifuged (1000 g for 10 min) and the cell pellet was resuspended in 200 μL of PBS solution, Total cell counts were determined using a Neubauer chamber, and differential counting was carried out in cytospin (Fanem Mod 2400; Sāo Paulo, Brazil) preparations stained with May-Grünwald dye. Leukocytes were classified based on morphological criteria.

[2] = test system: mice with OVA-induced allergic asthma; assay: Bronchial reactivity to carbachol, isolated bronchi of OVA-sensitized mice (Protocol-1); type: in vivo, Balb/c mice
Protocol: Balb/c mice (8-9 weeks old, Charles River, Calco, Italy) were housed in the animal care facility at the Department of Pharmacy of the University of Naples. […] All animals were allowed to acclimate for four days prior to experiments and were subjected to 12 h light-12 h dark schedule. Each mouse was assigned an identity number and randomtzed to different groups so that all experiments were carried out in a blinded manner. The experimental procedures were approved by the Italian Ministry according to International and National law and policies (EU Directive 2010/63/EU and Italian DL 26/2014 for animal experiments, ARRIVE guidelines and the Basel declaration including the 3R concept). Animal studies are reported in compliance with the ARRIVE guidelines. Balb/c mice is the most widely mouse strain used to study asthma-like features in vivo and to investigate the undedying molecular and cellular mechanisms of allergen sensitization. Mice were treated subcutaneously (s.c.) with 0.4 mL (100 μg) of ovalbumin (OVA) complexed with alum (13 mg mL^−1) (OVA group) at day 0 and 7. Chicken egg-white ovalbumin (OVA: grade V. cat. A5503, Sigma Chemical Co., St. Louis, MO) was dissolved in sterile phosphate buffered saline (PBS) solution (250 μg/1 ml) and Al(OH)3 was added (at 13 mg/ml). This mix was used to induce the allergic sensitization of the animals by subcutaneous injection. OVA was dissolved at 3% in sterile PBS solution and this solution was nebulized (as the immunological challenges). At day 21 mice were exposed to OVA challenge for three days and then sacrificed. […] A group of animals was treated s.c. with saline (vehicle group). […] Animals were killed at selected time points by overdose of enflurane and bronchi and blood collected. Main bronchi were rapidly dissected and cleaned from fat and connective tissue. […] Results were expressed as dyne/mg tissue. In another set of experiments on bronchi pre-contracted with carbachol and salbutamol-induced relaxation was assessed.

CC(C)(O)c1ccccc1CCC(SCC1(CC(=O)OCC(=O)[C@@]23O[C@H](C4CCCCC4)O[C@@H]2C[C@H]2[C@@H]4CCC5=CC(=O)C=C[C@]5(C)[C@H]4[C@@H](O)C[C@@]23C)CC1)c1cccc(/C=C/c2ccc3ccc(Cl)cc3n2)c1 (some centres unmarked) [montelukast desisobutyryl-ciclesonide ester]
inhibition of eosinophil recruitment to the lungs at the lowest dose tested ([1]; 10 nmol/animal/day, comparable with ciclesonide alone at 100 nmol/animal/day): significant effects
BAL eosinophils (OVA-induced increase) ([1]; 10, 30 and 100 nmol/animal/day intranasal, 4 weeks, FIG. 10): did not reach statistical significance; also recorded: lower number of eosinophils
control of bronchial hyper-reactivity (response to carbachol) ([2]; 0.5, 1 and 2 mg/Kg i.p. 1 hour before OVA challenge, FIG. 5A): good control of bronchial hyper-reactivity at all doses tested
control of hyper-reactivity to carbachol, compared to ciclesonide ([2]; ester 2 mg/kg i.p. vs ciclesonide 1 mg/kg, FIG. 6A): major efficacy in the control of the development of hyper-reactivity to carbachol
effect on bronchial hyper-responsiveness, ester versus montelukast ([2]; ester 2 mg/kg i.p. vs montelukast 1 mg/kg, FIG. 7A): comparable
